Measured values published in patent US8816052B2, “Mutant apoprotein of photoprotein with low calcium sensitivity” (JNC Corporation, priority 2011, dated 2014).

Experiments:
Type in all cases: biochemical
Native Aequorin = biological target: T1, Native Aequorin (Aequorea victoria, UniProt P02592); assay: Substrate specificity: semi-synthetic aequorin from coelenterazine analogue and purified apoaequorin; conditions: for Luminescence Intensity for 60 Secs: CTZ = 100; for Relative Luminescence Intensity: CTZ = 100, 50 mM calcium solution
T1 construct: His tag (from the vector name piP-His-HE); made in house
T1 sequence (P02592 9-196 limits assumed): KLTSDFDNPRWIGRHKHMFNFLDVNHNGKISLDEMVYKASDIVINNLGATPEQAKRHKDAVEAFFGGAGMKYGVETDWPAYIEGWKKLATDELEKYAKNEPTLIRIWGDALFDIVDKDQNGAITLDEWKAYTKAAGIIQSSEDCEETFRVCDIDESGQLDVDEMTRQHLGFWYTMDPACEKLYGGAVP
Protocol: (§1) AM20 was prepared to examine the properties. Specifically, 1 ml of 30 mM Tris-HCl (pH 7.6) containing 10 mM EDTA was mixed with 2-mercaptoethanol (1 μl) and a solution of the coelenterazine analogue (1 μg/μl) dissolved in ethanol. Then, 10 μl of the purified apoaequorin or recombinant mutant apoaequorin AM20 was added to the mixture, which was allowed to stand on ice (4° C.) for 5 hours to perform the regeneration reaction. […] The half decay time was determined from the luminescence patterns.

Mutant Aequorin AM20 = biological target: T2, Mutant Aequorin AM20 (Aequorea victoria, UniProt P02592, H34Q/K37A/N33D/S39T/V32K); conditions: for Half Decay Time / Luminescence Intensity for 60 Secs / Relative Luminescence Intensity: Mutant Aequorin AM20; for Luminescence Intensity for 60 Secs / Relative Luminescence Intensity: CTZ = 100; for Relative Luminescence Intensity: 50 mM calcium solution; for half decay time of the luminescence of the semi-synthetic aequorin: analogue as light-emitting substrate, statement in words
T2 construct: OmpA secretory signal peptide (N); histidine tag (N); made in house; host or cells: Escherichia coli strain WA802
T2 sequence (P02592 9-196 V32K/N33D/H34Q/K37A/S39T): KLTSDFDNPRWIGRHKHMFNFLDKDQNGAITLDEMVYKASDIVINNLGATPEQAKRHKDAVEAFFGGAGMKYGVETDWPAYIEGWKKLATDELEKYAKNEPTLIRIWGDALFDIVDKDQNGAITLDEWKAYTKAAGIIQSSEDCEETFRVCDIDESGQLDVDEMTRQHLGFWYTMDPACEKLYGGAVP
Protocol: as §1

[1] = Luminescence activity and half decay time of mutant aequorins regenerated from E. coli extracts; conditions: E. coli JM83 extract regenerated with coelenterazine, final calcium 25 mM
Protocol: To express in Escherichia coli the mutant apoaequorin expression vector having the replaced other EF hand loop sequence which was constructed in (2) above, the mutant apoaequorin expression vector was transfected to Escherichia coli JM83 in a conventional manner. The transformants obtained were inoculated into 10 ml of LB liquid medium (10 g of bacto-tryptone, 5 g of yeast extract and 5 g of sodium chloride, per liter of water, pH 7.2) containing ampicillin (50 μg/ml) and cultured at 37° C. for 18 hours. […] Subsequently, 2-mercaptoethanol (1 μl) (manufactured by Wako Pure Chemical Industry) and a solution of substrate coelenterazine in ethanol (1 μg/μl) (JNC Corporation, hereinafter the same) were mixed with the recombinant mutant apoaequorin extract. The mixture was allowed to stand on ice (4° C.) for 18 hours thereby to regenerate into the mutant aequorin. […] The final calcium level in the reaction solution was 25 mM. The luminescence activity was expressed by relative activity (%) to the maximum intensity (Imax).

## O=c1c(Cc2cccc(O)c2)nc2c(Cc3ccccc3)[nH]c(-c3ccc(O)cc3)cn1-2 [3iso-CTZ, 3iso-coelenterazine]
Native Aequorin
  Half Decay Time: 0.24 s
  Luminescence Intensity for 60 Secs: 13.4%
  Relative Luminescence Intensity: 51.6%
Mutant Aequorin AM20
  Half Decay Time: 0.66 s
  Luminescence Intensity for 60 Secs: 9.2%
  Relative Luminescence Intensity: 224%

## Cc1cccc(Cc2nc3c(Cc4ccccc4)[nH]c(-c4ccc(O)cc4)cn-3c2=O)c1 [3me-CTZ, 3me-coelenterazine]
Native Aequorin
  Half Decay Time: 0.51 s
  Luminescence Intensity for 60 Secs: 21.2%
  Relative Luminescence Intensity: 35.0%
Mutant Aequorin AM20
  Half Decay Time: 3.69 s
  Luminescence Intensity for 60 Secs: 35.5%
  Relative Luminescence Intensity: 125%

## COc1cccc(Cc2nc3c(Cc4ccccc4)[nH]c(-c4ccc(O)cc4)cn-3c2=O)c1 [3meo-CTZ, 3meo-coelenterazine]
Native Aequorin
  Half Decay Time: 0.52 s
  Luminescence Intensity for 60 Secs: 35.6%
  Relative Luminescence Intensity: 64.9%
Mutant Aequorin AM20
  Half Decay Time: 1.43 s
  Luminescence Intensity for 60 Secs: 25.0%
  Relative Luminescence Intensity: 266%

## Oc1ccc(Cc2nc3c(Cc4ccccc4)nc(-c4ccc(O)cc4)cn3c2O)cc1 [CTZ, coelenterazine]
Native Aequorin
  Half Decay Time: 0.81 s
  Luminescence Intensity for 60 Secs: 100%
  Relative Luminescence Intensity: 100%
Mutant Aequorin AM20
  Half Decay Time: 14.12 s
  Luminescence Intensity for 60 Secs: 100%
  Relative Luminescence Intensity: 100%

## O=c1c(Cc2ccc(C(F)(F)F)cc2)nc2c(Cc3ccccc3)[nH]c(-c3ccc(O)cc3)cn1-2 [cf3-CTZ, cf3-coelenterazine]
Native Aequorin
  Half Decay Time: 5.95 s
  Luminescence Intensity for 60 Secs: 48.6%
  Relative Luminescence Intensity: 6.3%
Mutant Aequorin AM20
  Half Decay Time: >60 s
  Luminescence Intensity for 60 Secs: 18.6%
  Relative Luminescence Intensity: 7.5%
  half decay time of the luminescence of the semi-synthetic aequorin: extremely prolonged

## Oc1ccc(-c2cn3c(O)c(Cc4ccccc4)nc3c(Cc3ccccc3)n2)cc1 [h-CTZ, h-coelenterazine]
Native Aequorin
  Half Decay Time: 0.69 s
  Luminescence Intensity for 60 Secs: 70.1%
  Relative Luminescence Intensity: 87.9%
Mutant Aequorin AM20
  Half Decay Time: 2.98 s
  Luminescence Intensity for 60 Secs: 45.4%
  Relative Luminescence Intensity: 220%

## O=c1c(Cc2ccccc2)nc2c(CC3CCCC3)[nH]c(-c3ccc(O)cc3)cn1-2 [hcp-CTZ, hcp-coelenterazine]
Native Aequorin
  Half Decay Time: 0.51 s
  Luminescence Intensity for 60 Secs: 14.3%
  Relative Luminescence Intensity: 20.5%
Mutant Aequorin AM20
  Half Decay Time: 0.61 s
  Luminescence Intensity for 60 Secs: 7.6%
  Relative Luminescence Intensity: 187%

## Cc1ccc(Cc2nc3c(Cc4ccccc4)[nH]c(-c4ccc(O)cc4)cn-3c2=O)cc1 [me-CTZ, me-coelenterazine]
Native Aequorin
  Half Decay Time: 5.00 s
  Luminescence Intensity for 60 Secs: 45.0%
  Relative Luminescence Intensity: 5.8%
Mutant Aequorin AM20
  Half Decay Time: >60 s
  Luminescence Intensity for 60 Secs: 15.4%
  Relative Luminescence Intensity: 6.8%
  half decay time of the luminescence of the semi-synthetic aequorin: extremely prolonged

## COc1ccc(Cc2nc3c(Cc4ccccc4)[nH]c(-c4ccc(O)cc4)cn-3c2=O)cc1 [meo-CTZ, meo-coelenterazine]
Native Aequorin
  Half Decay Time: 1.63 s
  Luminescence Intensity for 60 Secs: 60.1%
  Relative Luminescence Intensity: 22.3%
Mutant Aequorin AM20
  Half Decay Time: 18.35 s
  Luminescence Intensity for 60 Secs: 35.6%
  Relative Luminescence Intensity: 26.6%
  half decay time of the luminescence of the semi-synthetic aequorin: extremely prolonged

## Bis-coelenterazine [Bis-CTZ]
Native Aequorin
  Luminescence Intensity for 60 Secs: 0.0%
  Relative Luminescence Intensity: 0.0%
Mutant Aequorin AM20
  Luminescence Intensity for 60 Secs: 0.0%
  Relative Luminescence Intensity: 0.0%

## ameh-coelenterazine [αmeh-CTZ]
Native Aequorin
  Half Decay Time: 0.35 s
  Luminescence Intensity for 60 Secs: 0.9%
  Relative Luminescence Intensity: 2.2%
Mutant Aequorin AM20
  Half Decay Time: 0.61 s
  Luminescence Intensity for 60 Secs: 0.9%
  Relative Luminescence Intensity: 19.4%

## et-coelenterazine [et-CTZ]
Native Aequorin
  Half Decay Time: 1.21 s
  Luminescence Intensity for 60 Secs: 44.1%
  Relative Luminescence Intensity: 27.3%
Mutant Aequorin AM20
  Half Decay Time: 1.94 s
  Luminescence Intensity for 60 Secs: 33.6%
  Relative Luminescence Intensity: 56.7%

## i-coelenterazine [i-CTZ]
Native Aequorin
  Half Decay Time: 11.42 s
  Luminescence Intensity for 60 Secs: 65.3%
  Relative Luminescence Intensity: 5.0%
Mutant Aequorin AM20
  Half Decay Time: >60 s
  Luminescence Intensity for 60 Secs: 9.8%
  Relative Luminescence Intensity: 3.6%
  half decay time of the luminescence of the semi-synthetic aequorin: extremely prolonged

## n-coelenterazine [n-CTZ]
Native Aequorin
  Half Decay Time: 4.71 s
  Luminescence Intensity for 60 Secs: 24.0%
  Relative Luminescence Intensity: 3.6%
Mutant Aequorin AM20
  Half Decay Time: 44.04 s
  Luminescence Intensity for 60 Secs: 1.9%
  Relative Luminescence Intensity: 1.0%
  half decay time of the luminescence of the semi-synthetic aequorin: extremely prolonged

B1: pAM2 + X: aequorin expressed with vector pAM2+X; EF hand loop [I] DVNHNGKISLDE (SEQ ID NO: 13); native aequorin reference (protein)
chain: MTMITPSCKLTSDFDNPRWIGRHKHMFNFLDVNHNGKISLDEMVYKASDIVINNLGATPEQAKRHKDAVEAFFGGAGMKYGVETDWPAYIEGWKKLATDELEKYAKNEPTLIRIWGDALFDIVDKDQNGAITLDEWKAYTKAAGIIQSSEDCEETFRVCDIDESGQLDVDEMTRQHLGFWYTMDPACEKLYGGAVP
[1]; 50 mM calcium solution added, measured 30 seconds, relative to maximum intensity (Imax)
  Relative Luminescence Activity: 100.0%
[1]; time until luminescence reaches half of maximum intensity
  Half Decay Time: 1.3 s
